From patent US20220386606A1, “SPECIFICALLY SUBSTITUTED 3-PHENYL-5-SPIROCYCLOPENTYL-3-PYRROLIN-2-ONES AND THEIR USE AS HERBICIDES” (Bayer Aktiengesellschaft, priority 2019, published 2022)

Columns and labels:
SETVI [1] = experiment: Post-emergence herbicidal action against SETVI; type: in vivo, Setaria viridis; settings: 80 g/ha, visual assessment about 3 weeks after treatment vs untreated controls
Summary of the method: (§1)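 Weeds were grown in sandy loam in a greenhouse and treated at the one-leaf stage, 2 to 3 weeks after sowing. WP or EC formulations were sprayed onto green parts at 600 to 800 l/ha water with 0.2% wetting agent. Visual % action versus untreated controls was scored after about 3 weeks.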

ALOMY [2] = experiment: Post-emergence herbicidal action against ALOMY; type: in vivo, Alopecurus myosuroides; settings: 80 g/ha, visual assessment after about 3 weeks
Summary of the method: as §1

VIOTR [3] = experiment: Post-emergence herbicidal action against VIOTR; type: in vivo, Viola tricolor; settings: 80 g/ha, visual assessment about 3 weeks after treatment vs untreated controls
Summary of the method: as §1

LOLRI [4] = experiment: Post-emergence herbicidal action against LOLRI; type: in vivo, Lolium rigidum; settings: 80 g/ha, visual assessment about 3 weeks after treatment vs untreated controls
Summary of the method: as §1

VIOTR [5] = experiment: Pre-emergence herbicidal action against VIOTR; type: in vivo, Viola tricolor; settings: 320 g/ha
Summary of the method: (§2)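 Scoring is visual, 3 weeks post-application, on a 0 to 100% scale relative to untreated controls (100% = plants died). Treatment is pre-emergence: aqueous suspensions or emulsions applied to the covering soil at 600 to 800 L/ha with 0.2% wetting agent.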

ECHCG [6] = experiment: Post-emergence herbicidal action against ECHCG; type: in vivo, Echinochloa crus-galli; settings: 80 g/ha, visual assessment about 3 weeks after treatment vs untreated controls
Summary of the method: as §1

ECHCG [7] = experiment: Pre-emergence herbicidal action against ECHCG; type: in vivo, Echinochloa crus-galli; settings: 320 g/ha, scored visually after 3 weeks vs untreated controls
Summary of the method: as §2

LOLRI [8] = experiment: Pre-emergence herbicidal action against LOLRI (Table 8, titled post-emergence at 320 g/ha); type: in vivo, Lolium rigidum; settings: table stands in the pre-emergence section
Summary of the method: as §2

AVEFA [9] = experiment: Pre-emergence herbicidal action against AVEFA; type: in vivo, Avena fatua; settings: 320 g/ha, scored visually after 3 weeks vs untreated controls
Summary of the method: as §2

AMARE [10] = experiment: Pre-emergence herbicidal action against AMARE; type: in vivo, Amaranthus retroflexus; settings: 320 g/ha
Summary of the method: as §2

SETVI [11] = experiment: Pre-emergence herbicidal action against SETVI; type: in vivo, Setaria viridis; settings: 320 g/ha, scored visually after 3 weeks vs untreated controls
Summary of the method: as §2

PHBPU = experiment: Post-emergence herbicidal action against PHBPU; type: in vivo; settings: assessed visually after about 3 weeks, 100% = plants have died, 0% = like control plants
Protocol: (§3) Seeds of monocotyledonous and dicotyledonous weed and crop plants are laid out in sandy loam soil in wood-fiber pots, covered with soil and cultivated in a greenhouse under good growth conditions. 2 to 3 weeks after sowing, the test plants are treated at the one-leaf stage. The compounds of the invention, formulated in the form of wettable powders (WP) or as emulsion concentrates (EC), are then sprayed onto the green parts of the plants as aqueous suspension or emulsion at a water application rate equating to 600 to 800 l/ha with addition of 0.2% wetting agent. After the test plants have been left to stand in the greenhouse under optimal growth conditions for about 3 weeks, the action of the preparations is assessed visually in comparison to untreated controls (herbicidal action in percent (%): 100% activity=the plants have died, 0% activity=like control plants).

DIGSA [12] = experiment: Post-emergence herbicidal action against DIGSA; type: in vivo, Digitaria sanguinalis; settings: 80 g/ha, visual assessment about 3 weeks after treatment vs untreated controls
Summary of the method: as §1

MATIN = experiment: Pre-emergence herbicidal action against MATIN; type: in vivo; settings: 320 g/ha
Summary of the method: as §2

ALOMY [13] = experiment: Pre-emergence herbicidal action against ALOMY; type: in vivo, Alopecurus myosuroides; settings: 320 g/ha, scored visually after 3 weeks vs untreated controls
Summary of the method: as §2

DIGSA [14] = experiment: Pre-emergence herbicidal action against DIGSA; type: in vivo, Digitaria sanguinalis; settings: 320 g/ha, scored visually after 3 weeks vs untreated controls
Summary of the method: as §2

ABUTH [15] = experiment: Pre-emergence herbicidal action against ABUTH; type: in vivo, Abutylon threophrasti; settings: 320 g/ha
Summary of the method: as §2

POLCO = experiment: Pre-emergence herbicidal action against POLCO; type: in vivo, Polygonum convolvulus; settings: 320 g/ha
Summary of the method: as §2

AMARE [16] = experiment: Post-emergence herbicidal action against AMARE; type: in vivo, Amaranthus retroflexus; settings: 80 g/ha, visual assessment about 3 weeks after treatment vs untreated controls
Protocol: as §3

VERPE [17] = experiment: Post-emergence herbicidal action against VERPE; type: in vivo, Veronica persica; settings: 80 g/ha, visual assessment about 3 weeks after treatment vs untreated controls
Protocol: as §3

VERPE [18] = experiment: Pre-emergence herbicidal action against VERPE; type: in vivo, Veronica persica; settings: 320 g/ha
Summary of the method: as §2

AVEFA [19] = experiment: Post-emergence herbicidal action against AVEFA; type: in vivo, Avena fatua; settings: 80 g/ha, visual assessment after about 3 weeks
Summary of the method: as §1

ABUTH [20] = experiment: Post-emergence herbicidal action against ABUTH; type: in vivo, Abutylon threophrasti; settings: 80 g/ha, visual assessment about 3 weeks after treatment vs untreated controls
Summary of the method: as §1

CC#Cc1cc(C)c(C2=C(O)C3(CCC(COCCC)C3)NC2=O)c(OC)c1 (stereo not drawn) [Example I-58]
90%: Pre-emergence action against VIOTR in % (VIOTR [5]) | Post-emergence action against DIGSA in % (DIGSA [12])
80%: Post-emergence action against VIOTR in % (VIOTR [3]) | Pre-emergence action against AVEFA in % (AVEFA [9]) | Post-emergence action at 80 g/ha against PHBPU in % (PHBPU)
100%: Post-emergence action against SETVI in % (SETVI [1]) | Post-emergence action against ALOMY in % (ALOMY [2]) | Post-emergence action against LOLRI in % (LOLRI [4]) | Post-emergence action against ECHCG in % (ECHCG [6]) | Pre-emergence action against ECHCG in % (ECHCG [7]) | Pre-emergence herbicidal action against LOLRI in % (LOLRI [8]) | Pre-emergence action against AMARE in % (AMARE [10]) | Pre-emergence action against SETVI in % (SETVI [11]) | Pre-emergence action against MATIN in % (MATIN) | Pre-emergence action against ALOMY in % (ALOMY [13]) | Pre-emergence action against DIGSA in % (DIGSA [14])

CC#Cc1cc(C)c(C2=C(O)C3(CCC(COCCC)C3)NC2=O)c(Cl)c1 (stereo not drawn) [Example I-68]
80%: Post-emergence action against VIOTR in % (VIOTR [3]) | Post-emergence action at 80 g/ha against PHBPU in % (PHBPU)
100%: Post-emergence action against SETVI in % (SETVI [1]) | Post-emergence action against ALOMY in % (ALOMY [2]) | Post-emergence action against LOLRI in % (LOLRI [4]) | Pre-emergence action against VIOTR in % (VIOTR [5]) | Post-emergence action against ECHCG in % (ECHCG [6]) | Pre-emergence action against ECHCG in % (ECHCG [7]) | Pre-emergence herbicidal action against LOLRI in % (LOLRI [8]) | Pre-emergence action against AVEFA in % (AVEFA [9]) | Pre-emergence action against AMARE in % (AMARE [10]) | Pre-emergence action against SETVI in % (SETVI [11]) | Post-emergence action against DIGSA in % (DIGSA [12]) | Pre-emergence action against MATIN in % (MATIN) | Pre-emergence action against ALOMY in % (ALOMY [13]) | Pre-emergence action against DIGSA in % (DIGSA [14])
90%: Pre-emergence action against ABUTH in % (ABUTH [15])

CC#Cc1cc(C)c(C2=C(O)C3(CCC(COCC)C3)NC2=O)c(Cl)c1 (stereo not drawn) [Example I-02]
100%: Pre-emergence action against ABUTH in % (ABUTH [15]) | Pre-emergence action against POLCO in % (POLCO) | Post-emergence action against SETVI in % (SETVI [1]) | Post-emergence action against ALOMY in % (ALOMY [2]) | Post-emergence action against LOLRI in % (LOLRI [4]) | Pre-emergence action against VIOTR in % (VIOTR [5]) | Post-emergence action against ECHCG in % (ECHCG [6]) | Pre-emergence action against ECHCG in % (ECHCG [7]) | Pre-emergence herbicidal action against LOLRI in % (LOLRI [8]) | Pre-emergence action against AVEFA in % (AVEFA [9]) | Pre-emergence action against AMARE in % (AMARE [10]) | Pre-emergence action against SETVI in % (SETVI [11]) | Pre-emergence action against ALOMY in % (ALOMY [13]) | Pre-emergence action against DIGSA in % (DIGSA [14])
90%: Post-emergence action against VERPE in % (VERPE [17]) | Pre-emergence action against VERPE in % (VERPE [18]) | Post-emergence action against AVEFA in % (AVEFA [19]) | Post-emergence action against DIGSA in % (DIGSA [12]) | Pre-emergence action against MATIN in % (MATIN)
80%: Post-emergence action against AMARE in % (AMARE [16]) | Post-emergence action against ABUTH in % (ABUTH [20])

CC#Cc1cc(C)c(C2=C(OC(=O)OCC)C3(CCC(COCCC)C3)NC2=O)c(OC)c1 (stereo not drawn) [Example P-81]
90%: Pre-emergence action against VERPE in % (VERPE [18]) | Post-emergence action against DIGSA in % (DIGSA [12])
100%: Pre-emergence action against POLCO in % (POLCO) | Post-emergence action against SETVI in % (SETVI [1]) | Post-emergence action against ALOMY in % (ALOMY [2]) | Post-emergence action against LOLRI in % (LOLRI [4]) | Pre-emergence action against VIOTR in % (VIOTR [5]) | Post-emergence action against ECHCG in % (ECHCG [6]) | Pre-emergence action against ECHCG in % (ECHCG [7]) | Pre-emergence herbicidal action against LOLRI in % (LOLRI [8]) | Pre-emergence action against AVEFA in % (AVEFA [9]) | Pre-emergence action against AMARE in % (AMARE [10]) | Pre-emergence action against SETVI in % (SETVI [11]) | Pre-emergence action against ALOMY in % (ALOMY [13]) | Pre-emergence action against DIGSA in % (DIGSA [14])
80%: Post-emergence action against AVEFA in % (AVEFA [19]) | Post-emergence action at 80 g/ha against PHBPU in % (PHBPU) | Pre-emergence action against MATIN in % (MATIN)
